Results from US5457103A, “3',5'-di-tert.-butyl-4'-hydroxy flavones” (Adir et Compagnie, priority 1992, dated 1995).

Legend:
Human LDLs [1] = experiment: Modification of LDLs by copper sulphate (inhibition of LDL oxidation, MDA production); type: biochemical; details: 24 hours, copper sulfate 5 μM, compounds 0.1 μM to 100 μM; read-out: IC50 (reduction by 50% of the production of MDA), oxidation of LDLs by copper sulfate
Description: (§1) This activity was compared with that of probucol and vitamin E taken as reference products.
Modification of LDLs by copper sulphate
Human LDLs are incubated for 24 hours in the presence of copper sulfate (5 μM) and in the absence or in the presence of the compounds tested (from 0.1 μM to 100 μM).
After incubation, the peroxidation of the LDLs is evaluated by electrophoresis on agar gel and by the formation of one of the products of lipid peroxidation: malonic dialdehyde (MDA) (cf. Parthasarathy S. et al., J. Clin. Invest., 77, (1986), 641-644).
The activity of the compounds tested is evaluated by calculating the concentrations that reduce by 50% (IC50) the production of MDA compared with the control experiments in the absence of a product of the invention.

Human LDLs [2] = experiment: Modification of LDLs by endothelial cells of the rabbit aorta (inhibition of LDL oxidation, MDA production); type: cell-based; details: 24 hours, endothelial cells of rabbit aorta (RECL B4 line), compounds 0.1 to 100 μM; read-out: IC50 (reduction by 50% of the production of MDA), oxidation of LDLs by endothelial cells
Description: as §1
Modification of LDLs by endothelial cells
Human LDLs are incubated for 24 hours in the presence of endothelial cells of the rabbit aorta (RECL B4 line, provenance: Pr. Steinberg, USA) and in the absence or in the presence of the tested compounds (from 0.1 to 100 μM).
After incubation, the peroxidation of the LDLs is evaluated as in Example 21 by electrophoresis on agar gel and by the formation of MDA (cf. Steinbrecher, U.P. et al., Proc. Nat. Acad. Sci. USA, 81, (1984), 3883-3887). The activity of the compounds tested is evaluated by calculating the concentrations that reduce by 50% (IC50) the production of MDA compared with the control experiments in the absence of a product of the invention.
The results of this test of inhibition of oxidation of LDLs by endothelial cells are grouped below: […]

[3] = system: coronary arteries caused to contract by F2α prostaglandin (PGF2α); experiment: Vasorelaxant activity on isolated coronary artery rings contracted by PGF2α; parameters: species or system Yucatan miniature pigs; details: for activity at 0.1 µM / activity at 0.3 µM / activity at 1 µM / activity at 3 µM / activity at 10 µM: 0.25 h, PGF2α 4 μM, indomethacin 10 μM, cumulative concentrations every 15 minutes, read-out: tension as a percentage of the maximum tension observed under PGF2α
Description: Study of the compounds of the invention on isolated vessels
Yucatan miniature pigs (Ch. River) are anaesthetised with pentobarbitone. The circumflex branch of the left coronary artery is removed and proximal rings of approximately 4 mm are prepared. The organs are placed in a temperature-controlled 20 ml bath containing a physiological solution having the composition:
maintained at 37° C., pH =7.4 and with 95% oxygen and 5% carbon dioxide. The initial tension is established progressively up to 6 g. After a stabilisation period of 60 minutes, the rings are caused to contract by PGF2a (4 μM) in the presence of indomethacin (10 μM). As soon as this concentration has stabilised, the products of the present invention are tested by adding cumulative concentrations of the product of Example 17 and probucol every 15 minutes in comparison with the control experiments with the solvent used (dimethyl sulfoxide:DMSO).

| Molecule | IC50 (Human LDLs [1]) [µM] | IC50 (Human LDLs [2]) [µM] | further results |
| --- | --- | --- | --- |
| CC(C)(C)c1cc(-c2cc(=O)c3ccc(O)cc3o2)cc(C(C)(C)C)c1O [Example 1, 3',5'-di-tert-butyl-7,4'-dihydroxyflavone] | 1 |  |  |
| CCCCCCOc1ccc2c(=O)cc(-c3cc(C(C)(C)C)c(O)c(C(C)(C)C)c3)oc2c1 [Example 2, 3',5'-di-tert.-butyl-7-n-hexyloxy-4'-hydroxyflavone] | 5 |  |  |
| CC(C)(C)c1cc(-c2cc(=O)c3ccc(OCCN4CCOCC4)cc3o2)cc(C(C)(C)C)c1O [Example 3, 3', 5'-di-tert.-butyl-4'-hydroxy-.7-(4"-morpholinylethoxy)flavone] | 0.8 |  |  |
| CC(C)(C)c1cc(-c2cc(=O)c3ccc(OCc4ccc(Cl)cc4)cc3o2)cc(C(C)(C)C)c1O [Example 4, 7-p-chlorobenzyloxy-3',5'-di-tert.-butyl-4'-hydroxyflavone] | 7 |  |  |
| CC(C)(C)c1cc(-c2cc(=O)c3ccc(OCC(=O)N4CCCCC4)cc3o2)cc(C(C)(C)C)c1O [Example 5, 3',5'-di-tert-butyl-4'-hydroxy-7-(2"-piperidino-2"-oxoethoxy)flavone] | 3 |  |  |
| CC(C)(C)c1cc(-c2cc(=O)c3ccc(OCC(=O)N4CCN(Cc5ccccc5)CC4)cc3o2)cc(C(C)(C)C)c1O [Example 6, 3',5'-di-tert.-butyl-4'-hydroxy-7-[2"-(N-benzylpiperazino)-2"-oxo-ethoxy]flavone] | 3 |  |  |
| CCN(CC)C(=O)COc1ccc2c(=O)cc(-c3cc(C(C)(C)C)c(O)c(C(C)(C)C)c3)oc2c1 [Example 7, 3',5'-di-tert-butyl-4'-hydroxy-7-(N,N-diethylacetamidoxy) flavone] | 3 |  |  |
| CC(C)(C)c1cc(-c2cc(=O)c3ccccc3o2)cc(C(C)(C)C)c1O [Example 14, 3',5'-di-tert-butyl-4'-hydroxyflavone] | 3 | 2.5 |  |
| CCOC(=O)C(C)(C)Oc1ccc2c(=O)cc(-c3cc(C(C)(C)C)c(O)c(C(C)(C)C)c3)oc2c1 [Example 15, Ethyl 2-17-(3',5'-di-tert.-butyl-4'-hydroxy)flavonyl]oxy-2,2-dimethyl acetate] | 3 | 0.5 |  |
| CCOC(=O)COc1ccc2c(=O)cc(-c3cc(C(C)(C)C)c(O)c(C(C)(C)C)c3)oc2c1 [Example 16, Ethyl 2-[7-(3',5'-di-tert.-butyl-4'-hydroxy)flavonyl]oxyacetate] | 3 | 0.8 | activity at 0.1 µM ([3]; Sus scrofa): 95.4%; activity at 0.3 µM ([3]; Sus scrofa): 85%; activity at 1 µM ([3]; Sus scrofa): 74.1%; activity at 3 µM ([3]; Sus scrofa): 37.3%; activity at 10 µM ([3]; Sus scrofa): 20.2%; IC50 ([3]; Sus scrofa, coronary artery rings contracted by PGF2α, read-out: IC50 of vascular relaxation): ~2.6 µM; vascular relaxation (in words) ([3]; coronary artery rings contracted by PGF2α): concentration-dependent vascular relaxation |
| CC(C)(C)c1cc(-c2cc(=O)c3ccc(OCC(=O)O)cc3o2)cc(C(C)(C)C)c1O [Example 17, 2-[7-(3',5'-di-tert.-butyl-4'-hydroxy)flavonyl]oxyacetic acid] | 3 | 0.5 |  |
| CC(C)(C)c1cc(-c2cc(=O)c3ccc(OCC(=O)O)cc3o2)cc(C(C)(C)C)c1O [Example 18] | 5 |  |  |
| CC(C)(C)c1cc(C(=O)Oc2ccc3c(=O)cc(-c4cc(C(C)(C)C)c(O)c(C(C)(C)C)c4)oc3c2)cc(C(C)(C)C)c1O [Example 20, 3',5'-di-tert-butyl-4'-hydroxy-7-(3",5"-di-tert-butyl-4"-hydroxy)benzoyloxyflavone] | 30 | 0.7 |  |
| CC(C)(Sc1cc(C(C)(C)C)c(O)c(C(C)(C)C)c1)Sc1cc(C(C)(C)C)c(O)c(C(C)(C)C)c1 [PROBUCOL, reference compound] | 3 | 4 | activity at 0.1 µM ([3]; Sus scrofa): 93.3%; activity at 0.3 µM ([3]; Sus scrofa): 85.6%; activity at 1 µM ([3]; Sus scrofa): 77.3%; activity at 3 µM ([3]; Sus scrofa): 66%; activity at 10 µM ([3]; Sus scrofa): 49.2% |
| VITAMIN E [reference compound] | > 100 | 4 |  |
